According to US8440724B2, “Inhibiting neurotransmitter reuptake” (Mayo Foundation for Medical Education and Research, priority 2008, dated 2013):
Entries after “also recorded” stand apart in the source; their conditions may differ. Like-named read-outs stand apart in the source and are kept apart here.

How the values were obtained:
[1] = biological target: T1, human norepinephrine transporter (hNET) (Homo sapiens, UniProt P23975); assay: Radioligand binding to cloned hNET, [3H]nisoxetine, HEK-293 cell membranes; conditions: for Kd: Geometric Mean ± SEM, HCl salts, read-out: Equilibrium Dissociation Constant (KD) for Transporter Binding, hNET (N)
T1 construct: expressed in transfected cells; host or cells: HEK-293, stably transfected
T1 sequence (P23975 whole entry): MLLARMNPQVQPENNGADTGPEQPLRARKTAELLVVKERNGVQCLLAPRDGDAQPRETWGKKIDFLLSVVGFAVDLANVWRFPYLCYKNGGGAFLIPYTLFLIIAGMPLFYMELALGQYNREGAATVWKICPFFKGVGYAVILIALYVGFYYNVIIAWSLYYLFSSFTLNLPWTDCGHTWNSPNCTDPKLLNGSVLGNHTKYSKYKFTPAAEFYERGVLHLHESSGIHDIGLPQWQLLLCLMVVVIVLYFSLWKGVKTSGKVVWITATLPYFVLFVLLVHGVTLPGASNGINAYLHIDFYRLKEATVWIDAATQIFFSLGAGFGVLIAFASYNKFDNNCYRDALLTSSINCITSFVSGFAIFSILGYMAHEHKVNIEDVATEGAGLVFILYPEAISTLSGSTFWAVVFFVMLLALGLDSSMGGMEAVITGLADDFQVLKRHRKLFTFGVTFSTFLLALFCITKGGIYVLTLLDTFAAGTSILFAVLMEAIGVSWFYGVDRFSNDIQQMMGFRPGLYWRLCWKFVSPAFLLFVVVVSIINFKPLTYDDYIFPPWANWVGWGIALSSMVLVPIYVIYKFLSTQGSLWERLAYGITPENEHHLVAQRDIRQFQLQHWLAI
Procedure: (§1) HEK-293 cells expressing the recombinant hSERT or hDAT were incubated with Dulbecco's modified Eagles medium (MEM) supplemented with 0.1 mM nonessential amino acid solution for MEM, 5% v/v fetal bovine serum and 1 U/mL penicillin/streptomycin solution. Cells expressing the hNET transporter were incubated with Dulbecco's modified Eagles medium supplemented with 10% v/v fetal bovine serum and 100 U/mL penicillin/streptomycin solution and 2 mM L-glutamine. The cells were grown until 70-80% confluent on 175 cm^2 flasks in a humidified 10% CO2/90% air environment at 37° C., with the selecting antibiotic Geneticin sulfate at 250 μg/mL. The cells were incubated in 10% CO2, 90% air at 37° C. and 100% humidity.
(§2) Cell membranes containing hSERT, hNET, or hDAT were prepared from the cell lines to assay ligand binding for each of the transporters. […] The washed cells were incubated for 5 minutes at 37° C. in 10 mL solution 1 containing 100 mM ethylene glycol-bis N,N,N′,N′-tetraacetic acid (EGTA). The cells were then scraped from the flask surface with a rubber spatula, placed into a centrifuge tube, and collected by centrifugation at 1000×g for 5 minutes at 4° C. The resulting supernatant was discarded, and the cell pellet was resuspended in 0.5 to1.0 mL of the appropriate binding buffer (described below). The resuspended cell pellet was homogenized using a Polytron for 10 seconds at setting 6. The resulting homogenate was centrifuged at about 36,000×g for 10 minutes at 4° C. The supernatant was discarded, and the pellet was resuspended in the same volume of the appropriate binding buffer and centrifuged again. The supernatant was discarded, and the final pellet containing cell membranes was resuspended in the appropriate binding buffer and stored at −80° C. until use.
To assess binding to the cloned hNET, cells expressing hNET were homogenized in 50 mM Tris-HCl with 300 mM NaCl and 5 mM KCl (pH 7.4). The binding reaction consisted of 5 μg cell membrane protein, 0.5 nM [^3H]nisoxetine (nisoxetine HCl, [N-methyl-^3H], specific activity 82.0 Ci/mmol; Amersham, Arlington Hts., Ill.), and varying concentrations of either unlabeled nisoxetine or the test compound. A reaction to determine non-specific binding consisted of 5 μg cell membrane protein, 0.5 nM [^3H]nisoxetine, and 1 μM final concentration of unlabeled nisoxetine. The reactions were incubated at 22° C. for 60 minutes. Following incubation, the reactions were terminated by rapid filtration through separate GF/B filter strips pretreated with 0.2% polyethylenimine in a 48-well Brandel cell harvester. The cell membrane-containing filter strips were then rinsed five times with ice-cold 0.9% NaCl. After rinsing, individual filters were cut from the strip and placed in a scintillation vial containing 6.5 mL of Redi-Safe (Beckman-Coulter, Fullerton, Calif.).
(§3) The program was modified to calculate the Hill coefficient (nH). Data are presented as geometric mean±S.E.M. of at least three independent experiments. One-component models and two-component models were compared using the root mean square error of each fit and the F test.

[2] = biological target: T2, human dopamine transporter (hDAT) (Homo sapiens, UniProt Q01959); assay: Radioligand binding to cloned hDAT, [3H]WIN35428, HEK-293 cell membranes; conditions: for Binding at hDAT compared to PRC200-SS: in words
T2 construct: expressed in transfected cells; host or cells: HEK-293, stably transfected
T2 sequence (Q01959 whole entry): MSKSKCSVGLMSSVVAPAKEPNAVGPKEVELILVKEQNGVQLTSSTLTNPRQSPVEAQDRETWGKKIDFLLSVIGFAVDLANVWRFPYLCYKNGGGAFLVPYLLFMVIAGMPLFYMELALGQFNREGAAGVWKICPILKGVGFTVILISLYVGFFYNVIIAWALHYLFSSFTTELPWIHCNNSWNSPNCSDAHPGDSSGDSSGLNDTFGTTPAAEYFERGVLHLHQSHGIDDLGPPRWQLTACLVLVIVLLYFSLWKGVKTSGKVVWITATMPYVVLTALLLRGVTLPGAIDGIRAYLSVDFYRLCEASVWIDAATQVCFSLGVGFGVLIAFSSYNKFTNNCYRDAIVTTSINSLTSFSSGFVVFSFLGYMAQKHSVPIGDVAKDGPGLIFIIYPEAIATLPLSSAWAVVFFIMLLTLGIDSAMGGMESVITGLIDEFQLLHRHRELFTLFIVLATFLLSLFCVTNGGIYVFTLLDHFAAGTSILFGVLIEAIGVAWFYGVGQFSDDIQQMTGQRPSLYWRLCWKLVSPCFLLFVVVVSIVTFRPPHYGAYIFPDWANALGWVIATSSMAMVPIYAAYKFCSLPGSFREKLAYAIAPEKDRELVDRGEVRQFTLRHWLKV
Procedure: as §1, §2
To assess binding to the cloned hDAT, cells expressing hDAT were homogenized in 50 mM Tris-HCl with 120 mM NaCl (pH 7.4). The binding reaction contained 15 μg cell membrane protein, 1 nM [^3H]WIN35428 (WIN35428, [N-methyl-^3H], specific activity 85.9 Ci/mmol; PerkinElmer, Boston, Mass.), and varying concentrations of either unlabeled WIN35428 or the test compound. A reaction to determine non-specific binding contained 15 μg cell membrane protein, 1 nM [^3H]WIN35428, and 10 μM final concentration of unlabeled WIN35428. The reactions were incubated at 22° C. for 1 hour. Following incubation, the reactions were terminated by rapid filtration through separate GF/B filter strips pretreated with 0.2% polyethylenimine in a 48-well Brandel cell harvester. The cell membrane-containing filter strips were then rinsed five times with ice-cold 0.9% NaCl. After rinsing, individual filters were cut from the strip and placed in a scintillation vial containing 6.5 mL of Redi-Safe (Beckman-Coulter, Fullerton, Calif.).
as §3

hSERT, hNET, hDAT = assay: Human transporter binding: rank order and range of potency over the three transporters; conditions: for Potency (rank-order of potency of binding; S = hSERT, N = hNET, D = hDAT): from KD values; for Potency Range (difference between most potent and least potent binding): ratio of KD over hSERT, hNET, hDAT
Description: as §3

[3] = biological target: T3, human serotonin transporter (hSERT) (Homo sapiens, UniProt P31645); assay: Radioligand binding to cloned hSERT, [3H]citalopram, HEK-293 cell membranes; conditions: for Kd: Geometric Mean ± SEM, HCl salts, read-out: Equilibrium Dissociation Constant (KD) for Transporter Binding, hSERT (S); for Binding at hSERT compared to PRC200-SS: in words
T3 construct: expressed in transfected cells; host or cells: HEK-293, stably transfected
T3 sequence (P31645 whole entry): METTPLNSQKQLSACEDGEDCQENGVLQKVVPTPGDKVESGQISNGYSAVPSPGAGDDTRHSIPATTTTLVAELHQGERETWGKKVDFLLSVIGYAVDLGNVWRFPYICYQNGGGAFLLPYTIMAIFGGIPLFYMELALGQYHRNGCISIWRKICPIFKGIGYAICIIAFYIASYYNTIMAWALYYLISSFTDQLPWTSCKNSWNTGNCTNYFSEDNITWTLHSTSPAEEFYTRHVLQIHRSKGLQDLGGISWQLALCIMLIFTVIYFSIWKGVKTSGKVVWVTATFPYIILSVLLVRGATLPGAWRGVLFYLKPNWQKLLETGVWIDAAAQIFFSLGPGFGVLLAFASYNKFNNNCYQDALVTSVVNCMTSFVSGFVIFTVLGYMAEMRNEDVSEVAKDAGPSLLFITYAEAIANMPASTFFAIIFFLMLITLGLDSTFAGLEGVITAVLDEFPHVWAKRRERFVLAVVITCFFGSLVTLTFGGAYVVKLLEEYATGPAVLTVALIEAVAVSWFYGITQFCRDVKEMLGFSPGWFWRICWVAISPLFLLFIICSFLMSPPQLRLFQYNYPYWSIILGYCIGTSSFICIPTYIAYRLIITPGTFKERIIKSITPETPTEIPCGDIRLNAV
Procedure: as §1, §2
Radioligand binding assays for the indicated transporters were performed as follows. To assess binding to the cloned hSERT, cells expressing hSERT were homogenized in 50 mM Tris-HCl with 120 mM NaCl and 5 mM KCl (pH 7.4). The binding reaction consisted of 10 μg cell membrane protein, […] [^3H]citalopram (citalopram, [N-methyl-^3H], specific activity 79.0 Ci/mmol; PerkinElmer, Boston, Mass.), and varying concentrations of either unlabeled citalopram or the test compound. A reaction to determine non-specific binding consisted of 10 μg cell membrane protein, 0.5 nM [^3H]citalopram, and 1 μM final concentration of unlabeled citalopram. The reactions were incubated at 22° C. for 60 minutes. Following incubation, the reactions were terminated by rapid filtration through separate GF/B filter strips pretreated with 0.2% polyethylenimine in a 48-well Brandel cell harvester. The cell membrane-containing filter strips were then rinsed five times with ice-cold 0.9% NaCl. After rinsing, individual filters were cut from the strip and placed in a scintillation vial containing 6.5 mL of Redi-Safe (Beckman-Coulter, Fullerton, Calif.).
as §3

[4] = Geometric Mean ± SEM, HCl salts, read-out: Equilibrium Dissociation Constant (KD) for Transporter Binding, hDAT (D)

Kd [1]	Potency Range (difference between most potent and least potent binding) (hSERT, hNET, hDAT)	Kd [3]	Kd [2, 4]	Compound	Kd [2]	Potency (rank-order of potency of binding; S = hSERT, N = hNET, D = hDAT) (hSERT, hNET, hDAT)	Binding at hSERT compared to PRC200-SS [3]	Binding at hNET compared to PRC200-SS ([1]; in words)	Binding at hDAT compared to PRC200-SS [2]	Potency (rank-order of potency of binding; S = hSERT, N = hNET, D = hDAT) (hSERT, hNET, hDAT; listed as MCJ001-NH2-cyc-SS)	Binding at hSERT compared to PRC200-SS ([3]; listed as MCJ001-NH2-cyc-SS)
–	–	–	–	CNCC[C@H](Oc1cccc2ccccc12)c1cccs1 [Duloxetine, reference compound]	–	S > N > D	–	–	–	–	–
99 ± 6 nM	41 fold	8 ± 1 nM	330 ± 50 nM	c1ccc([C@H]2OCNC[C@@H]2c2ccc3ccccc3c2)cc1 [MCJ000-OH-Cyc-SS, (5S,6S)-5-(naphthalen-2-yl)-6-phenyl-1,3-oxazinane]	–	S > D > N	–	–	–	–	–
234 ± 5 nM	8.3 fold	35 ± 2 nM	290 ± 20 nM	CNC[C@@H](c1ccc2ccccc2c1)[C@@H](Cl)c1ccccc1 [MCJ001-Cl-RR, (2R,3R)-3-chloro-N-methyl-2-(naphthalen-2-yl)-3-phenylpropan-1-amine]	–	S > N > D	–	–	–	–	–
700 ± 50 nM	13 fold	55 ± 5 nM	350 ± 20 nM	CNC[C@@H](c1ccc2ccccc2c1)[C@H](Cl)c1ccccc1 [MCJ001-Cl-SR, (2R,3S)-3-chloro-N-methyl-2-(naphthalen-2-yl)-3-phenylpropan-1-amine]	–	S > D > N	–	–	–	–	–
259 ± 5 nM	2.8 fold	94 ± 10 nM	240 ± 1 nM	CNC[C@H](c1ccc2ccccc2c1)[C@H](OCCCCO[C@H](c1ccccc1)[C@H](CNC)c1ccc2ccccc2c1)c1ccccc1 [MCJ001-Dimer4-SS, (2S,2′S,3S,3′S)-3,3′-(butane-1,4-diylbis(oxy))bis(N-methyl-2-(naphthalen-2-yl)-3-phenylpropan-1-amine)]	–	S > D > N	–	–	–	–	–
78 ± 4 nM	4.9 fold	100 ± 7 nM	380 ± 30 nM	CNC[C@H](c1ccc2ccccc2c1)[C@@H](N)c1ccccc1 [MCJ001-NH2-RS, (2S,3R)-N1-methyl-2-(naphthalen-2-yl)-3-phenylpropane-1,3-diamine]	–	N > S > D	–	–	–	–	–
460 ± 50 nM	2.6 fold	240 ± 20 nM	180 ± 20 nM	CN1CO[C@@H](c2ccccc2)[C@H](c2ccc3ccccc3c2)C1 [MCJ001-OH-Cyc-RR, (5R,6R)-3-methyl-5-(naphthalen-2-yl)-6-phenyl-1,3-oxazinane]	–	D > S > N	–	–	–	–	–
–	–	–	–	CCN(CC)C(=O)C1(c2ccccc2)CC1CN (stereo not shown) [Milnacipran, reference compound]	–	S > N > D	–	–	–	–	–
–	–	–	–	CCOc1ccccc1OC(c1ccccc1)C1CNCCO1 (stereo not shown) [Reboxetine, reference compound]	–	N > S > D	–	–	–	–	–

Compound	Kd [1]	Potency Range (difference between most potent and least potent binding) (hSERT, hNET, hDAT)	Kd [3]	Kd [2, 4]	Kd [2]	Potency (rank-order of potency of binding; S = hSERT, N = hNET, D = hDAT) (hSERT, hNET, hDAT)	Binding at hSERT compared to PRC200-SS [3]	Binding at hNET compared to PRC200-SS ([1]; in words)	Binding at hDAT compared to PRC200-SS [2]	Potency (rank-order of potency of binding; S = hSERT, N = hNET, D = hDAT) (hSERT, hNET, hDAT; listed as MCJ001-NH2-cyc-SS)	Binding at hSERT compared to PRC200-SS ([3]; listed as MCJ001-NH2-cyc-SS)
CNC[C@@H](c1ccc2ccccc2c1)[C@@H](N)c1ccccc1 (racemic) [MCJ001-NH2-(±)-RR, (2R,3R)-N1-methyl-2-(naphthalen-2-yl)-3-phenylpropane-1,3-diamine]	2.5 ± 0.1 nM	22 fold	1.27 ± 0.06 nM	–	28 ± 4 nM	S > N > D	greater binding at hSERT	–	–	–	–
CNC[C@@H](c1ccc2ccccc2c1)[C@@H](F)c1ccccc1 [MCJ001-F-RR, (2R,3R)-3-fluoro-N-methyl-2-(naphthalen-2-yl)-3-phenylpropan-1-amine]	170 ± 10 nM	11 fold	16 ± 1 nM	–	150 ± 9 nM	S > D > N	–	–	–	–	–
CN1CN[C@H](c2ccccc2)[C@@H](c2ccc3ccccc3c2)C1 [MCJ001-NH2-Cyc-SS, (4S,5S)-1-methyl-5-(naphthalen-2-yl)-4-phenylhexahydropyrimidine]	13 ± 1 nM	50 fold	0.26 ± 0.02 nM	–	7.7 ± 0.6 nM	S>D>N	markedly enhanced potency at binding to hSERT	lower potency of binding to hNET	several fold enhanced potency at binding to hDAT; also recorded: several fold more potent binding at hDAT	S > D > N	greater binding at hSERT
C[N+]1(C)CN[C@H](c2ccccc2)[C@@H](c2ccc3ccccc3c2)C1.[Cl-] [MCJ002-NH2-Cyc-SS, (4S,5S)-1,1-dimethyl-5-(naphthalen-2-yl)-4-phenylhexahydropyrimidin-1-ium chloride]	100 ± 10 nM	53 fold	1.9 ± 0.2 nM	–	18 ± 2 nM	S > D > N	greater binding at hSERT	–	Enhanced binding to hDAT	–	–
